Biological target: BRAF^V600E protein (Homo sapiens, UniProt P15056, V600E)
Experiment: HiBiT cellular BRAF V600E degradation assay
Format: cell-based
Conditions: 24 h incubation; for DC50: A375.10 cells (HiBiT tag knocked in at N-terminal of BRAF V600E), concentration at which 50% of total cellular BRAF V600E is degraded; for Emax: A375.10 cells, Emax = amount of residual protein remaining in the cell after compound treatment, read-out: HiBit 24 h Emax

Sequence of BRAF^V600E protein (P15056 whole entry V600E): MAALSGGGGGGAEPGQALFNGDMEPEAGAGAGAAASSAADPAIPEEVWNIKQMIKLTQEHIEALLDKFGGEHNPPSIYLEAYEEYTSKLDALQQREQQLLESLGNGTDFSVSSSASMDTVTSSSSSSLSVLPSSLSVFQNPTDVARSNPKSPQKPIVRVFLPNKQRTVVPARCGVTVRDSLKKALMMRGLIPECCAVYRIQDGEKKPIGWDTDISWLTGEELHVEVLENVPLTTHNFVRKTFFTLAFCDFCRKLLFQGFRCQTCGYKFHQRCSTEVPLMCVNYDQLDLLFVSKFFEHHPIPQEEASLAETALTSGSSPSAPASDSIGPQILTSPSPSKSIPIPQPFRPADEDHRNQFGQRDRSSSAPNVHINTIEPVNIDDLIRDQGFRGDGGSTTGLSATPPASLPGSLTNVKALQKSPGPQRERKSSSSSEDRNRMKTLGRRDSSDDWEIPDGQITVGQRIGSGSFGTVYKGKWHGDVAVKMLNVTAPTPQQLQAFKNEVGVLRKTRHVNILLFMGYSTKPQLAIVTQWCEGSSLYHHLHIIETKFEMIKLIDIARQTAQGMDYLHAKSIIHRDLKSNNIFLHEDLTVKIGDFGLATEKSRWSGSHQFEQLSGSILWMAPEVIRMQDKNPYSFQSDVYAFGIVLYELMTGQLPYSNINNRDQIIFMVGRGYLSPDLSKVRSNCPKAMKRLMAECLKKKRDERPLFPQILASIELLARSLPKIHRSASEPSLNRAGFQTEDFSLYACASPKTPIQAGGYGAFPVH

DC50 [nM] | Emax [%] | Structure (SMILES)
83 | 31 | CCN(C)S(=O)(=O)Nc1ccc(F)c(C(=O)c2c[nH]c3ncc(-c4ccc(CN5CCN(C(=O)N6CCN(c7ccc(OC8CCC(=O)NC8=O)cc7)CC6)CC5)cc4)cc23)c1F (centres unmarked) [Example A4, 5-[4-[[4-[4-[4-(2,6-Dioxopiperidin-3-yl)oxyphenyl]piperazine-1-carbonyl]piperazin-1-yl]methyl]phenyl]-3-[3-[[ethyl(methyl)sulfamoyl]amino]-2,6-difluorobenzoyl]-1H-pyrrolo[2,3-b]pyridine]
104 | 34 | CCN(C)S(=O)(=O)Nc1ccc(F)c(C(=O)c2c[nH]c3ncc(-c4ccc(N5CCN(CCCC(=O)N6CCC(c7ccc(OC8CCC(=O)NC8=O)cc7)CC6)CC5)nc4)cc23)c1F (centres unmarked) [Example A5, 5-[6-[4-[4-[4-[4-(2,6-Dioxopiperidin-3-yl)oxyphenyl]piperidin-1-yl]-4-oxobutyl]piperazin-1-yl]pyridin-3-yl]-3-[3-[[ethyl(methyl)sulfamoyl]amino]-2,6-difluorobenzoyl]-1H-pyrrolo[2,3-b]pyridine]
15 | 13 | CCN(C)S(=O)(=O)Nc1ccc(F)c(C(=O)c2c[nH]c3ncc(-c4cnc(N5CCN(C(=O)CN6CCC(c7ccc(OC8CCC(=O)NC8=O)cc7)CC6)CC5)nc4)cc23)c1F (centres unmarked) [Example A6, 5-[2-[4-[2-[4-[4-(2,6-Dioxopiperidin-3-yl)oxyphenyl]piperidin-1-yl]acetyl]piperazin-1-yl]pyrimidin-5-yl]-3-[3-[[ethyl(methyl)sulfamoyl]amino]-2,6-difluorobenzoyl]-1H-pyrrolo[2,3-b]pyridine]

Continued, molecule first:

Structure (SMILES) | DC50 [nM] | Emax [%]
CCN(C)S(=O)(=O)Nc1ccc(F)c(C(=O)c2c[nH]c3ncc(-c4cc(F)c(N5CCN(C(=O)CC6(O)CCN(c7ccc(NC8CCC(=O)NC8=O)cc7F)CC6)CC5)cc4F)cc23)c1F (centres unmarked) [Example 221, 5-[4-[4-[2-[1-[4-[(2,6-dioxo-3-piperidyl)amino]-2-fluoro-phenyl]-4-hydroxy-4-piperidyl]acetyl]piperazin-1-yl]-2,5-difluoro-phenyl]-3-[3-[[ethyl(methyl)sulfamoyl]amino]-2,6-difluoro-benzoyl]-1H-pyrrolo[2,3-b]pyridine] | 5.65 | 9.12
CCN(C)S(=O)(=O)Nc1ccc(F)c(C(=O)c2c[nH]c3ncc(-c4ccc(N5CCN(C(=O)CN6CCC(c7ccc(OC8CCC(=O)NC8=O)cc7)CC6)CC5)nc4)cc23)c1F (centres unmarked) [Example A1, 5-[6-[4-[2-[4-[4-(2,6-Dioxopiperidin-3-yl)oxyphenyl]piperidin-1-yl]acetyl]piperazin-1-yl]pyridin-3-yl]-3-[3-[[ethyl(methyl)sulfamoyl]amino]-2,6-difluorobenzoyl]-1H-pyrrolo[2,3-b]pyridine] | 17 | 13
CCN(C)S(=O)(=O)Nc1ccc(F)c(C(=O)c2c[nH]c3ncc(-c4ccc(N5CCN(C(=O)CCCN6CCC(c7ccc(OC8CCC(=O)NC8=O)cc7)CC6)CC5)nc4)cc23)c1F (centres unmarked) [Example A2, 5-[6-[4-[4-[4-[4-(2,6-Dioxopiperidin-3-yl)oxyphenyl]piperidin-1-yl]butanoyl]piperazin-1-yl]pyridin-3-yl]-3-[3-[[ethyl(methyl)sulfamoyl]amino]-2,6-difluorobenzoyl]-1H-pyrrolo[2,3-b]pyridine] | 66 | 22
CCN(C)S(=O)(=O)Nc1ccc(F)c(C(=O)c2c[nH]c3ncc(-c4ccc(N5CCN(CC(=O)N6CCC(c7ccc(OC8CCC(=O)NC8=O)cc7)CC6)CC5)nc4)cc23)c1F (centres unmarked) [Example A3, 5-[6-[4-[2-[4-[4-(2,6-Dioxopiperidin-3-yl)oxyphenyl]piperidin-1-yl]-2-oxoethyl]piperazin-1-yl]pyridin-3-yl]-3-[3-[[ethyl(methyl)sulfamoyl]amino]-2,6-difluorobenzoyl]-1H-pyrrolo[2,3-b]pyridine] | 46 | 19

Reference: patent US12559492B2, “BRAF degraders” (C4 Therapeutics, Inc., priority 2020, dated 2026)
